Laboratory results taken from ChEMBL document CHEMBL1142805, “Study on supramolecular complexing ability vis-à-vis estimation of pKa of substituted sulfonamides: dominating role of Balaban index (J)” (Bioorg Med Chem Lett, 2005).

Experiment: Protonation constant (Proton-ligand formation constant) was determined
Format: ADME

pKa: 6.66
Structure (SMILES): O=[N+]([O-])c1ccc(S(=O)(=O)Nc2ccccc2)cc1
